Molecular target: T1, human CTPS1 (Homo sapiens, UniProt P17812)
T1 construct: FLAG (with GG linker); His8 (with GG linker); purchased Proteros biostructures GmbH
T1 sequence (P17812 1-591): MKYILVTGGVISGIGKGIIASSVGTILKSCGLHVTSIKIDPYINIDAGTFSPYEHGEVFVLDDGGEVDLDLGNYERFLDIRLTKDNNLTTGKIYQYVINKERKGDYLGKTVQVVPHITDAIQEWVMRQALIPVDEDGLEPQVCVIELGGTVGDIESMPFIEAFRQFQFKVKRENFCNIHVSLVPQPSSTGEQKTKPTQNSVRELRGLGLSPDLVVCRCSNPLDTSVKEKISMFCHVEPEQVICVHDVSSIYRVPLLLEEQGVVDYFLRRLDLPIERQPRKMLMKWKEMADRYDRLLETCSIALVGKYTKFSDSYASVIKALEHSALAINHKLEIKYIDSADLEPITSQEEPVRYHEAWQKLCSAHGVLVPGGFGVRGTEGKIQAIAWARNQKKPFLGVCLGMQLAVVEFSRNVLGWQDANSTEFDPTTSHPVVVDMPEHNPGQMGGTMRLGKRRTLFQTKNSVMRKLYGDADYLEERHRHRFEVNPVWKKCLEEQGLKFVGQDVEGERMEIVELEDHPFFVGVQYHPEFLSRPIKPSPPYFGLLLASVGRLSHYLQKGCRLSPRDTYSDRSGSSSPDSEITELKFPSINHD
Assay: RapidFire/MS-based enzyme selectivity assay (human CTPS1 versus CTPS2), CTPS1 isoform
Format: biochemical
Protocol: Human CTPS1 Versus CTPS2 Selectivity Assessment by RapidFire/MS Analysis.
The enzyme inhibitory activities against each target isoform of interest may be determined for the compounds of the invention using an optimised RapidFire high-throughput mass spectrometry (RF/MS) assay format. RF/MS assays for both human CTPS1 and CTPS2 may be performed in assay buffer consisting of 50 mM HEPES (Merck), 20 mM MgCl2, 5 mM KCl, 1 mM DTT, 0.01% Tween-20, pH to 8.0 accordingly. Human full-length active C-terminal FLAG-His-tag CTPS1 (UniProtKB—P17812, CTPS1[1-591]-[…] (CTPS1[1-591]-SEQ ID NO: 1)) may be obtained from Proteros biostructures GmbH. Human full length active C-terminal FLAG-His-Avi tagged CTPS2 (UniProtKB—Q9NRF8, CTPS2 [1-586]-[…] (CTPS2 [1-586]—SEQ ID NO: 2)) may be obtained from Harker Bio.
Human CTPS (1 or 2) protein may be prepared in 1× assay buffer to the final working protein concentration required for the reaction. A 2 uL volume per well of 2×CTPS (1 or 2) protein may be mixed with 40 nL of compound using acoustic (ECHO) delivery and incubated for 10 minutes at 25° C. Each isoform enzymatic reaction may be subsequently initiated by addition of 2 uL per well of a 2× substrate mix in assay buffer. For hCTPS1: ATP (0.3 mM), UTP (0.2 mM), GTP (0.07 mM) and L-glutamine (0.1 mM). For hCTPS2: ATP (0.1 mM), UTP (0.04 mM), GTP (0.03 mM) and L-glutamine (0.1 mM). Each mixture may be incubated for an appropriate amount of time per isoform within the determined linear phase of the reaction at 25° C. A 80 uL volume of stop solution (1% formic acid with 0.5 uM ^13C9-^15N3-CTP in H2O) may be added and the plate immediately heat-sealed and centrifuged for 10 minutes at 4,000 rpm. Following centrifugation, plates may be loaded onto the Agilent RapidFire microfluidic solid phase extraction system coupled to an API4000 triple quadrupole mass spectrometer (RF/MS) for analysis.
In all cases, the enzyme converts UTP to CTP. Highly specific and sensitive multiple reaction monitoring (MRM) MS methods may be optimised for the detection of the enzymatic reaction product, CTP, and the stable isotope labelled product standard ^13C9-^15N3-CTP. Readout for data analysis may be calculated as the ratio between the peak area of the product CTP and the internal standard ^13C9-^15N3-CTP. For data reporting, the following equation may be used:
(R=ratio/readout, P=product signal area, IS=internal standard signal area)
For each screening plate, the means of the negative (DMSO) and positive control values were used for the calculation of the respective assay window (S/B) and Z′ values. The median of the respective control values was used for calculation of percent inhibition according to the following equation:
(I=Inhibition, Rneq=median of negative control readout values, Rpos=median of positive control readout values, Rsample=sample readout value)
Percentage inhibition was then plotted against compound concentration, and the 50% inhibitory concentration (IC50) was determined from the resultant concentration-response curve.
Fold selectivity between CTPS1 and CTPS2 was subsequently calculated according to the following equation: […]

[1] = RapidFire/MS IC50 values of CTPS1 and CTPS2, Table 15
[2] = Table 16, human CTPS1 over human CTPS2, RapidFire/MS IC50 values

SMILES | Selectivity (fold selectivity between CTPS1 and CTPS2) [1] | Selectivity (fold selectivity between CTPS1 and CTPS2) [2]
CCC(C(=O)Nc1ccc(-c2cncc(OCC(F)(F)F)n2)cc1)c1ccnc(NS(=O)(=O)C2CC2)n1 (stereo not drawn) [P108, 2-(2-(cyclopropanesulfonamido)pyrimidin-4-yl)-N-(4-(9-(2,2,2-trifluoroethoxy)pyrazin-2-yl)phenyl)butanamide] | +++ (>60 fold (+++)) | –
CC(C)(NC(=O)c1ccc(-c2cncc(Cl)n2)cc1)c1csc(NS(=O)(=O)C2CC2)n1 [R52, 4-(6-chloropyrazin-2-yl)-N-(2-(2-(cyclopropanesulfon-amido)thiazol-4-yl)propan-2-yl)benzamide] | – | +++ (>60 fold (+++))
CCOc1cncc(-c2cnc(NC(=O)C(CC)c3ccnc(NS(=O)(=O)C4CC4)n3)c(C)c2)n1 (stereo not drawn) [P155, 2-(2-(cyclopropanesulfonamido)pyrimidin-4-yl)-N-(5-(6-ethoxypyrazin-2-yl)-3-methylpyridin-2-yl)butanamide] | + (2-30 fold (+)) | –
CCOc1cncc(-c2ccc(C(=O)NC(C)(C)c3csc(NS(=O)(=O)C4CC4)n3)c(C(F)(F)F)c2)n1 [R47, N-(2-(2-(cyclopropanesulfonamido)thiazol-4-yl)propan-2-yl)-4-(6-ethoxypyrazin-2-yl)-2-(trifluoromethyl)benzamide] | – | + (2-30 fold (+))
CCOc1cncc(-c2ccc(NC(=O)C(C)(OC)c3cncc(NS(=O)(=O)C4CC4)n3)nc2)n1 (single isomer, unassigned) [P205a, 2-(6-(cyclopropanesulfonamido)pyrazin-2-yl)-N-(5-(6-ethoxypyrazin-2-yl)pyridin-2-yl)-2-methoxypropanamide] | +++ (>60 fold (+++)) | –
CCOc1cncc(-c2ccc(C(=O)NC(C)(C)c3csc(NS(=O)(=O)C4CC4)n3)c(C)c2)n1 [R46, N-(2-(2-(cyclopropanesulfonamido)thiazol-4-yl)propan-2-yl)-4-(6-ethoxypyrazin-2-yl)-2-methyl benzamide] | – | + (2-30 fold (+))
CCOc1cncc(-c2ccc(C(=O)NC(C)(C)c3nc(NS(=O)(=O)C4CC4)sc3Cl)nc2)n1 [R73] | – | + (2-30 fold (+))
CCOc1cncc(-c2ccc(NC(=O)C(CC)c3ccnc(NS(=O)(=O)C4CC4)n3)c(F)c2)n1 (stereo not drawn) [P96, 2-(2-(cyclopropanesulfonamido)pyrimidin-4-yl)-N-(4-(6-ethoxypyrazin-2-yl)-2-fluorophenyl)butanamide] | + (2-30 fold (+)) | –
CC(C)(NC(=O)c1ccc(-c2cncc(C(F)(F)F)n2)cc1)c1nc(NS(=O)(=O)C2CC2)sc1Cl [R79, N-(2-(5-chloro-2-(cycloprop-anesulfonamido)thiazol-4-yl)propan-2-yl)-4-(6-(trifluoromethyl)pyrazin-2-yl)benzamide] | – | + (2-30 fold (+))
CCOc1cncc(-c2ccc(C(=O)NCc3ccnc(NS(=O)(=O)C4CC4)n3)cc2)n1 [P118, N-((2-(cyclopropanesulfonamido)pyrimidin-4-yl)methyl)-4-(6-ethoxypyrazin-2-yl)benzamide] | +++ (>60 fold (+++)) | –
CCc1cncc(-c2ccc(C(=O)NC(CCOC)c3csc(NS(=O)(=O)C4CC4)n3)c(F)c2)n1 (stereo not drawn) [R86, N-(1-(2-(cyclopropanesulfon-amido)thiazol-4-yl)-3-methoxypropyl)-4-(6-ethyl-pyrazin-2-yl)-2-fluorobenzamide] | – | +++ (>60 fold (+++))
CCC(C(=O)Nc1ccc(-c2cncc(OCC(F)(F)F)n2)cc1F)c1ccnc(NS(=O)(=O)C2CC2)n1 (stereo not drawn) [P98, 2-(2-(cyclopropanesulfonamido)pyrimidin-4-yl)-N-(2-fluoro-4-(6-(2,2,2-trifluoroethoxy)pyrazin-2-yl)phenyl)butanamide] | +++ (>60 fold (+++)) | –
CCOc1cncc(-c2ccc(C(=O)NC(CC)c3csc(NS(=O)(=O)C4CC4)n3)c(F)c2)n1 (single isomer, unassigned) [R70, N-(1-(2-(cyclopropanesulfon-amido)thiazol-4-yl)propyl)-4-(6-ethoxypyrazin-2-yl)-2-fluorobenzamide] | – | +++ (>60 fold (+++))
CC(C)Oc1cncc(-c2ccc(C(=O)NC(C)(C)c3csc(NS(=O)(=O)C4CC4)n3)c(F)c2)n1 [R43, N-(2-(2-(cyclopropanesulfonamido)thiazol-4-yl)propan-2-yl)-2-fluoro-4-(6-isopropoxypyrazin-2-yl)benzamide] | – | ++ (>30-60 fold (++))
CCOc1cncc(-c2ccc(NC(=O)C(CC)c3cccc(NS(=O)(=O)C4CC4)n3)cc2)n1 (stereo not drawn) [P191, 2-(6-(cyclopropanesulfonamido)pyridin-2-yl)-N-(4-(6-ethoxypyrazin-2-yl)phenyl)butanamide] | ++ (>30-60 fold (++)) | –
CCOc1cncc(-c2ccc(NC(=O)C(CC)c3ccnc(NS(=O)(=O)C4CC4)n3)nc2)n1 (stereo not drawn) [P88, 2-(2-(cyclopropanesulfonamido)pyrimidin-4-yl)-N-(5-(6-ethoxypyrazin-2-yl)pyridin-2-yl)butanamide] | +++ (>60 fold (+++)) | –
CCOc1cncc(-c2ccc(NC(=O)C(CC)c3ccnc(NS(=O)(=O)C4CC4)n3)cc2)n1 (stereo not drawn) [P105, 2-(2-(cyclopropanesulfonamido)pyrimidin-4-yl)-N-(4-(6-ethoxypyrazin-2-yl)phenyl)butanamide] | ++ (>30-60 fold (++)) | –
CCOc1cncc(-c2ccc(NC(=O)C(F)(CC)c3cncc(NS(=O)(=O)C4CC4)n3)nc2)n1 (single isomer, unassigned) [P207, 2-(6-(cyclopropanesulfonamido)pyrazin-2-yl)-N-(5-(6-ethoxypyrazin-2-yl)pyridin-2-yl)-2-fluorobutanamide] | + (2-30 fold (+)) | –
CCC(NC(=O)c1ccc(-c2cncc(C(F)(F)F)n2)cc1)c1csc(NS(=O)(=O)C2CC2)n1 (stereo not drawn) [R5, N-(1-(2-(cyclopropanesulfonamido)thiazol-4-yl)propyl)-4-(6-(trifluoromethyl)pyrazin-2-yl)benzamide] | – | + (2-30 fold (+))
CCc1cncc(-c2ccc(C(=O)NC(C)(C)c3csc(NS(=O)(=O)C4CC4)n3)c(F)c2)n1 [R41, N-(2-(2-(cyclopropanesulfon-amido)thiazol-4-yl)propan-2-yl)-4-(6-ethylpyrazin-2-yl)-2-fluorobenzamide] | – | ++ (>30-60 fold (++))
CCOc1cncc(-c2ccc(NC(=O)C(C)(C)c3ccnc(NS(=O)(=O)C4CC4)n3)c(C#N)c2)n1 [P34, N-(2-cyano-4-(6-ethoxypyrazin-2-yl)phenyl)-2-(2-(cyclopropanesulfonamido)pyrimidin-4-yl)-2-methylpropanamide] | + (2-30 fold (+)) | –

Source: patent publication US20230086703A1, “N-(4-(5-chloropyridin-3-yl)phenyl)-2-(2-(cyclopropanesulfonamido)pyrimidin-4-yl) butanamide derivatives and related compounds as human CTPS1 inhibitors for the treatment of proliferative diseases” (Step Pharma S.A.S., priority 2019, published 2023)
